4 compounds from patent US7824912B2, “Methods for ex vivo propagation of adult hepatic stem cells” (Massachusetts Institute of Technology, priority 2005, dated 2010) can be followed below.

For one series, the system named is CYP3A4. As to the method: FIG. 14A, cells were grown in a collagen-Matrigel™ sandwich with serum supplemented medium. FIG. 14B, cells were grown under routine culture conditions, but with serum-free medium. Data are the mean of replicate assays (n=2). Error bars indicate the standard deviation of replicate assays.
We undertook an evaluation of CYP3A4 activity in phHASC strains using a commercially available luciferase-based luminescent assay. The p450-GLO™ CYP3A4 luminescent assay was supplied by Promega Corp. (Madison, Wis.). The assay is based on a caged luciferin substrate that is specifically uncaged by the enzymatic action of CYP3A4. Once uncaged, luciferin is available for luciferase action and light production.
We evaluated the effect of rifampicin under two different conditions with two different concentrations of the solvent carrier DMSO, 0.03% and 5%. Parental phHASCs were evaluated after growth in a collagen-Matrigel™ sandwich, as recommended by the supplier of the p450-GLO™ CYP3A4 luminescent assay (FIG. 14A) or under standard culture conditions with serum-free medium (FIG. 14B).

For a further series, the system named is somatic liver stem cells. In words: Derivation of phHASC strains from liver cells by the modified SACK method. It is filed as cell-based, human. Here is the method: Cells: Human liver cells are tested for blood borne agents, the non-parenchymal (NPC) fraction is place on ice for up to 24 hours and then centrifuged at 800×g for 5 minutes at 4° C. The resulting cell pellet is re-suspended in 50 ml-100 ml cold Dulbecco's Modified Eagle medium (DMEM-high glucose) supplemented with 1% dialyzed fetal bovine serum (DFBS). Based on the count of trypan blue-excluding viable cells, 5×10^6 viable cells are plated in 10-cm diameter cell culture dishes. Initiation Culture Medium: […] Maintenance Culture Medium: DMEM-high glucose supplemented with 10% DFBS, 20 ng/ml recombinant human epidermal growth factor, 0.5 ng/ml transforming growth factor β1, and the respective purine compound at the concentration used in the Initiation Culture Medium. Although initial efforts to derive cell strains by limiting dilution cloning were unsuccessful, we modified the approach by initially culturing primary liver cell preparations at confluent cell densities under conditions of reduced serum and supplementation with SACK agents, TGF-β and EGF (See Table 1). SACK-derived rat adult stem cell strains resist hepatocytic differentiation by TGF-β and EGF. Whereas their non-stem cell progeny undergo cell cycle withdrawal and hepatic differentiation in response to serum reduction and exposure to TGF-β and EGF, in the presence of Xs, the stem cells continue to cycle actively. The first four livers were invested in establishing a modified SACK procedure. Unlike the original procedure developed for derivation of rat hepatic adult stem cells (Lee et al., 2003), the new method is not based on limiting dilution cloning. Instead, the liver cells are initially cultured at confluent cell densities in low serum medium (1% dialyzed fetal bovine serum [dFBS]) supplemented with the growth factors TGFβ and EGF. In addition, higher concentrations of SACK agents are used, e.g. 1.5 mM Xs. These conditions suppress the growth of differentiating liver cells (including troublesome fibroblasts and stellate cells), while promoting the expansion of […]. After initial outgrowth of […] strains, serum supplementation is increased to 10% dFBS for routine maintenance. Table 1 summarizes results obtained when the newly adapted SACK procedure was applied to cell specimens from two livers from […] donors. All strains were cryo-preserved at early passages using a freezing procedure that minimizes the time that cells spend super-cooled before ice formation (Karlsson et al., 1996). This precaution provides a high level of viability (70%-80%) upon thawing the cells.

In the next series the test system is phHASC subclone C2. Nature of the series: Colcemid arrest assay (CAA) of non-cycling cell fraction. It is filed as cell-based, human. To be noted: subclone C2, +Xs compared to -Xs. Here is the method:
FIGS. 12A and 12B show CAA analyses of a Xs-derived sub-clone (Parental strain see FIG. 10). […] The new assay is called the colcemid arrest assay (CAA). We used our engineered cell lines with experimentally controlled asymmetric self-renewal to develop it (Rambhatla et al., 2001; FIG. 9). Cell cultures are treated with the microtubule antagonist colcemid for a complete generation period. Conventional methods for propidium iodine staining and standard flow cytometry are used to quantify the DNA content of cells after colcemid treatment. In the presence of colcemid, cycling cells arrest in mitosis of the cell cycle with 4N DNA content. After one generation period, all previously cycling cells contain this amount of DNA. Therefore, for cell cultures with only symmetrically cycling cells, essentially the entire culture arrests in mitosis with 4N DNA (compare FIGS. 9A and 9C). In contrast, the DNA content of non-cycling cells is unchanged. […] Thus, CAA can identify and quantify the cycling stem cell fraction and the arrested differentiated progeny fraction of an asymmetrically self-renewing adult stem cell population (compare FIGS. 9B and 9D). […] In pilot studies with engineered cell lines, the CAA-determined rates were in good agreement with expectations based on previous lineage-specific cell kinetics assays. […]

Turning to `C[S+](C)[O-]` [DMSO, dimethylsulfoxide], in the series on CYP3A4, the “effect on basal level of CYP3A4 activity” value is “did not affect”. Moreover, the “increase in CYP3A4 activity” value with CYP3A4 (human, 48 h, 5 %) is 6.5 fold.
Turning to `O=c1[nH]c(=O)c2ncn([C@@H]3O[C@H](CO)[C@@H](O)[C@H]3O)c2[nH]1` [Xs, xanthosine], in the series with somatic liver stem cells (compared among Hx, Xn and Xs), the “reliability and effectiveness for developing strains” value was “most reliable and effective”. The compound further came in with a Sub-clones in the series on somatic liver stem cells (liver) of 9. For the same compound, the “Number of Strains” value in the series with somatic liver stem cells (liver, 2 trials per SACK agent) stood at 2; in the series on somatic liver stem cells (liver, 3 trials per SACK agent), 1. Moreover, the non-cycling fraction entry in the series with phHASC subclone C2 was “reduced”.
With `O=c1[nH]c(=O)c2[nH]cnc2[nH]1` [Xn, xanthine], the “Number of Strains” value in the series with somatic liver stem cells (liver, 2 trials per SACK agent) stood at 1; in the series with somatic liver stem cells (liver, 3 trials per SACK agent), 3.
Turning to `O=c1[nH]cnc2nc[nH]c12` [Hx, hypoxanthine], the “Number of Strains” value with somatic liver stem cells (liver, 2 trials per SACK agent) came to 2; with somatic liver stem cells (liver, 3 trials per SACK agent), 3.
